# Results reported in patent publication US20080027087A1 (AMPLA Pharmaceuticals, Inc., priority 2006, published 2008).
# How the values were obtained:
# CB1 receptor [1] = target: T1, CB1 receptor (Homo sapiens, UniProt P21554); assay: functional activity versus the CB1 receptor
# [2] = target: T2, mouse CB1 (mouse brain membrane) (Mus musculus, UniProt P47746); assay: competition ligand binding assay, mouse brain membrane preparations
# T2 construct: human CB1 receptors or mouse brain membrane preparations in 96-well plate format; from tissue; host or cells: mouse brain membrane preparations
# T2 sequence (P47746 whole entry): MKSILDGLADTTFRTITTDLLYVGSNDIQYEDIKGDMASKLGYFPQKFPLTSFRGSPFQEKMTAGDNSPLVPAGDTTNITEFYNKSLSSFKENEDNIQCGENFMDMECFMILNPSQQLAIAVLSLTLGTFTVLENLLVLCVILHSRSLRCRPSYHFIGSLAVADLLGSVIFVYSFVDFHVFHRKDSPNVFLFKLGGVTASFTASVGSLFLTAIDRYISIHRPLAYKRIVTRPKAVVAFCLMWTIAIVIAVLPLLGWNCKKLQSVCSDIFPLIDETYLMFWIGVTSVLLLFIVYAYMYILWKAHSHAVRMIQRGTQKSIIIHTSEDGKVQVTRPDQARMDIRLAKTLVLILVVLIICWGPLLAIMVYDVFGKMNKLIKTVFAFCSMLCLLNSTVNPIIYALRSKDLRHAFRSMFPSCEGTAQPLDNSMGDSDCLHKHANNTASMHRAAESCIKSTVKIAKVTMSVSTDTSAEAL
# Protocol: (§1) Competition ligand binding assays were performed with the non-selective cannabinoid receptor agonist ([^3H]CP 55,940) (0.75 nM) in the binding buffer containing 50 mM Tris-HCl, pH 7.4, 3 mM MgCl2, 1 mM EDTA, 0.2% BSA using CHO-k1 cell membranes stably expressing human CB1 receptors or mouse brain membrane preparations in 96-well plate format. The receptor membranes (10 μg/well) were pre-incubated with different concentrations of tested compounds in the binding buffer at room temperature for 30 min prior to addition of 0.75 nM [^3H]CP 55,940 in a final volume of 100 μl. The binding was carried out at room temperature for another 2 h. To determine the non-specific binding, experiments were also performed in the presence of 10 μM unlabeled CP 55,940. Binding was terminated by addition of cold binding buffer and filtrated on Whatman GF/B glass-fiber filters using a sampling manifold. The filters were washed 6 times with cold binding buffer and air-dried overnight. The radioactivity was quantitated on a TopCounter (PerkinElmer) after adding scintillation fluid. Specific binding was defined as the difference between the binding in the presence and absence of 10 μM unlabeled CP 55, 940.
# CB1 receptor [3] = target: T1, CB1 receptor; assay: dissociation kinetics assay with [3H]CP 55,940 on CHO-k1 cell membranes; format: binding; parameters: expressed in transfected cells; host or cells: CHO-k1 cell membranes; settings: 0.75 nM [3H]CP 55,940, room temperature, FIG. 3
# Protocol: Dissociation kinetics assays were performed with the non-selective cannabinoid receptor agonist ([^3H]CP 55,940) (0.75 nM) in the binding buffer containing 50 mM Tris-HCl, pH 7.4, 3 mM MgCl2, 1 mM EDTA, 0.2% BSA using CHO-k1 cell membranes stably expressing human CB1 receptors in 96-well plate format. The CBI receptor membranes (10 μg/well) were incubated with 0.75 nM [^3H]CP 55,940 in 100 μl binding buffer at room temperature for 2 h. Dissociation was initiated with addition of 100 μl unlabeled CP 55,940 (10 μM) in binding buffer in the absence or presence of different concentrations of compounds (compound 7). Dissociation was carried out at room temperature for indicated time. To determine the non-specific binding, experiments were also performed in the presence of 10 μM unlabeled CP 55,940. Binding was terminated by addition of cold binding buffer and filtrated on Whatman GF/B glass-fiber filters using a sampling manifold. The filters were washed 6 times with cold binding buffer and air-dried overnight. The radioactivity was quantitated on a TopCounter (PerkinElmer) after adding scintillation fluid. Specific binding was defined as the difference between the binding in the presence and absence of 10 μM unlabeled CP 55,940.
# [4] = target: T3, Human Cannabinoid 1 (CB1) receptor (Homo sapiens, UniProt P21554); assay: Ca2+i response to 2-AG in CB1 cells (Indo-1, DSIS flow cytometry), dose-response with or without compound; format: cell-based; settings: 2-AG with or without compound, FIG. 2
# T3 construct: expressed in transfected cells; host or cells: CHO cells stably expressing GqΔGi chimera
# T3 sequence (P21554 whole entry): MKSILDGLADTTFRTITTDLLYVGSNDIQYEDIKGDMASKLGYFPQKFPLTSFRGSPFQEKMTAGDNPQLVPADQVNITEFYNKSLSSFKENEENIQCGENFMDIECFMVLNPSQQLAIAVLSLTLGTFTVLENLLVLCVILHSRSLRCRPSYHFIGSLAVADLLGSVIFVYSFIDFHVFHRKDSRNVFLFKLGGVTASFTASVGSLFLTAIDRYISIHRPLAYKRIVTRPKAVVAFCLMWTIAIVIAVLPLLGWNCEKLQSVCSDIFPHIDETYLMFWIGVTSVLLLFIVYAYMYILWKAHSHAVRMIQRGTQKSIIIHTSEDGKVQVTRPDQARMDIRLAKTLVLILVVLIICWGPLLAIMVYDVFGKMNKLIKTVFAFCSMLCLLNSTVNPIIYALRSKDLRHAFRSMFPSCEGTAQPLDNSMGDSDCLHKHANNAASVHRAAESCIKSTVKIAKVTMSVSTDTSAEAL
# Source text: cDNA for the G protein GqΔGi chimera was generated by PCR and inserted into the polylinker region of the pcDNA3/hygro+ vector (Invitrogen). Stable expression of GqΔGi chimera protein in CHO cell line was generated under hygromycin selection. Human Cannabinoid 1 (CB1) cDNA was inserted into the polylinker region of the pcDNA3.1/(+) vector (Invitrogen) and DNA was introduced into the GqΔGi/CHO cell line by Lipofectamine reagent (Invitrogen). […]
# Cell line optimization was done by a proprietary method using our novel automated Direct Sample Injection System (DSIS, ‘Direct mixing and injection for high throughput fluidic systems’ Patent Application Number 20050249635) in conjunction with response. Intracellular Ca^2+ (Ca^2+i) levels were measured with Ca^2+ chelating fluorescent probes. […]
# The probe-loaded CB1 and Control cell mixture was placed in the Cell Suspension System on the DSIS where they were continuously rocked to keep them in a suspended state. […] The DSIS software, NVS Sampler, recorded a timing file and the CyAn software, Summit, recorded a data file. These two files were then compiled and analyzed by our proprietary software, NVS Analyzer, to determine the percent of cells that responded to each concentration. The data was transferred to GraphPAD Prism for a non-linear regression curve fit that determined the EC50. […]
# CB1 receptor [5] = target: T1, CB1 receptor; assay: [35S]GTPγS binding assay on CHO-k1 cell membranes; format: biochemical; parameters: expressed in transfected cells; host or cells: CHO-k1 cell membranes
# Protocol: [^35S]GTPγS binding assays were performed with CHO-k1 cell membranes stably expressing human CB1 receptors in 96-well ScintiPlate (PerkinElmer). The membranes (12.5 μg/well) were preincubated with compound 7 in the binding buffer (50 mM Tris-HCl, pH 7.4, 100 mM NaCl, 3 mM MgCl2, 0.2 mM EDTA, 0.2% BSA and 10 μM GDP) at 30° C. for 30 min, then added various concentrations of agonists (WIN 55212-2 or CP 55,940) and [^35S]GTPγS (0.2 nM) in a final volume of 200 μl. Reactions were carried out at 30° C. for 60 min, followed by centrifugation of plate at […] for 15 min. After removing supernatant, the radioactivity was quantitated on a TopCounter.
# CB2 receptor = target: T4, CB2 receptor (Homo sapiens, UniProt P34972); assay: Ca2+i response to 2-AG in CB2 receptor bearing cells, dose-response with or without compound; format: cell-based; settings: 2-AG with or without compound, FIG. 2
# T4 construct: host or cells: CB2 receptor bearing cells (host not described)
# T4 sequence (P34972 whole entry): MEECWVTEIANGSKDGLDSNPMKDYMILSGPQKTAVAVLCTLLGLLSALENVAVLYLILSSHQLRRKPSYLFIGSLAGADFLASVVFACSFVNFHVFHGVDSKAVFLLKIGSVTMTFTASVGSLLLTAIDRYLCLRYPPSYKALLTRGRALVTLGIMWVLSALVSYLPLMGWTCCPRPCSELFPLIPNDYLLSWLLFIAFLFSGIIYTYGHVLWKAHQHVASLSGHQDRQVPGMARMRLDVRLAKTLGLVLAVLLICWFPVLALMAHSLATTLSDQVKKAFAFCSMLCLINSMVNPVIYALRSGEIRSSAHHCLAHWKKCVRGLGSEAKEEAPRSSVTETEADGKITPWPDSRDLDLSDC
# CB1 receptor [6] = target: T1, CB1 receptor; assay: competition ligand binding assay, CHO-k1 cell membranes; parameters: expressed in transfected cells; host or cells: CHO-k1 cell membranes; settings: 0.75 nM radioligand, FIG. 6
# Protocol: as §1
# [7] = acute administration: wet mash intake, food intake and body weight in lean male C57BL/6J mice; format: in vivo; settings: 10 mg/kg orally, one-way ANOVA
# [8] = body weight of diet-induced obese male C57BL/6J mice, repeated oral administration for 28 days; format: in vivo; settings: for reduction of body weight: 28 days dosing, diet-induced obese mice
# Protocol: Sibutramine, which is currently used clinically, and rimonabant, which has recently received regulatory approval for the management of obesity were used as reference compounds.
# Sixty-five C57BL/6J mice (7-8 weeks of age) were ordered from Charles River, Margate, Kent. Mice were group housed in polypropylene cages with free access to a high fat diet (D12451 45% of Kcal derived from fat; Research Diets, N.J., USA) and tap water at all times. Animals were maintained at 21±4° C. and 55±20% humidity on a normal phase 12 h light-dark cycle (lights on 04:30 h)
# Animals were exposed to the high fat diet for 16 weeks. During this time body weight was recorded weekly. At the end of 14 weeks animals were singly housed in polypropylene cages for a further two week period (weeks 14-16) and placed on reverse phase lighting (lights off for 8 h from 9.30-17.30 h) during which time the room was illuminated by red light. Animals were dosed with vehicle orally throughout the baseline period. Body weight and food and water intake was recorded daily. Towards the end of the baseline period animals were allocated to one of seven groups (see table 2 below). Upon completion of the baseline period, mice were dosed for 28 days with vehicle or test drug as described below.
# Body weight and food and water intake were recorded daily. Following drug administration the animals were examined and any overt behaviour was recorded. For all dosing, the morning session was timed such that approximately half the mice were dosed at the time of lights out (09:30).
# The test compounds were dissolved in 1% methylcellulose. […] Drug doses were expressed as free base.
# Resulting body weights, food intake and water intake were expressed as mean values ±SEM, and the SEMs are calculated from residuals of the statistical model. Body weight data was analysed by ANCOVA with Day 1 as covariate followed by appropriate comparisons (two-tailed) to determine significant differences from the control group. […] Daily food and water intake data was analysed by ANOVA.
# T1 sequence (P21554 whole entry): as the sequence (P21554 whole entry) above
compound,measurement,setting,value
"NCCC(Oc1ccc(C(F)(F)F)cc1)c1ccccc1 (racemic) [norfluoxetine, 3-(4-trifluoromethylphenoxy)-3-phenylpropylamine]",functional activity versus the CB1 receptor,CB1 receptor [1],antagonist
CNCC[C@@H](Oc1ccc(C(F)(F)F)cc1)c1ccccc1 [(R)-fluoxetine],functional activity versus the CB1 receptor,CB1 receptor [1],antagonist
CNCC[C@H](Oc1ccc(C(F)(F)F)cc1)c1ccccc1 [(S)-Fluoxetine],functional activity versus the CB1 receptor,CB1 receptor [1],inverse agonist
Fc1ccc(C(OCCCc2c[nH]cn2)c2ccc(F)cc2)cc1 [compound 7],inhibition of agonist (CP 55940) binding,"[2]; mouse brain membrane, FIG. 7",inhibited
same,inhibition of antagonist/inverse agonist (SR 141716) binding,"[2]; mouse brain membrane, FIG. 7",inhibited
same,"inhibition of binding of [3H]CP 55,940","[2]; mouse brain membranes, 0.75 nM radioligand, FIG. 6",almost fully inhibited
same,"effect on the dissociation rate of [3H]CP 55,940",CB1 receptor [3],no effect
same,effect on the 2-AG dose response (Ca2+i) of CB1 cells,[4],right shift
same,pA2 estimation using CP 55940 as an agonist,"CB1 receptor [5]; CB1 cell line, FIG. 4",did not support an allosteric effect
same,antagonist versus inverse agonist activity in [35S]GTPγS binding,"CB1 receptor [5]; response relative to basal levels, FIG. 5",inverse agonist activity
same,effect on the 2-AG dose response (Ca2+i) of CB2 receptor bearing cells,CB2 receptor,No effect
same,"inhibition of binding of [3H]CP 55,940",CB1 receptor [6],partially inhibited
Cc1c(C(=O)NN2CCCCC2)nn(-c2ccc(Cl)cc2Cl)c1-c1ccc(Cl)cc1 [rimonabant],"24 hour body weight change, difference versus vehicle",[7]; FIG. 10,No significant differences
same,"daily food intake, difference versus vehicle",[7]; FIG. 15,No significant differences
same,"body weight, difference versus vehicle",[7]; FIG. 16,No significant differences
same,reduction of body weight,[8]; 10 mg/kg po,15%
same,"weight reduction as compared to vehicle, significance","[8]; day 29, po, Dunnett's test p<0.001, FIG. 8",statistically significant weight reduction
CC(C)CC(N(C)C)C1(c2ccc(Cl)cc2)CCC1 (stereo not drawn) [sibutramine],reduction of body weight,[8]; 20 mg/kg po,2%
